According to patent US20260285850A1, “SUBSTITUTED OXAZOLIDINONES AND IMIDAZOLINONES AS HERBICIDES” (FMC CORPORATION, priority 2023, published 2026):

Experiments:
Type in all cases: in vivo
[1] = test system: ducksalad (Heteranthera limosa); experiment: Test B flooded paddy test, visual plant response rating 0-100; settings: 250 g ai/ha, Flood, applied to paddy water, evaluated after 13 days
In short: (§1)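 Visual evaluation after 13 days. Water-applied treatment, 3 cm flood depth held constant, plants at 2-leaf stage at treatment.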

[2] = test system: sedge, umbrella (small-flower umbrella sedge, Cyperus difformis); experiment: as above; settings: 250 g ai/ha, Flood, applied to paddy water, evaluated after 13 days
In short: as §1

[3] = test system: barnyardgrass (Echinochloa crusgalli); experiment: as above; settings: 250 g ai/ha, Flood, applied to paddy water, evaluated after 13 days
In short: as §1

rice (Oryza sativa) = experiment: as above; settings: 250 g ai/ha, Flood, applied to paddy water, evaluated after 13 days
In short: as §1

[4] = test system: ryegrass, Italian (italian ryegrass, Lolium multiflorum); experiment: Test A postemergence application, visual injury rating 0-100; settings: 10 days
In short: (§2)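 Plants were grown in a loam soil-sand blend and treated with test chemical in a non-phytotoxic solvent mixture containing surfactant, either sprayed on soil preemergence or applied postemergence to 2-10 cm plants. After 10 days in a greenhouse, injury was scored visually against untreated controls, 0 meaning no effect and 100 complete control.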

[5] = test system: ragweed (common ragweed, Ambrosia artemisiifolia); experiment: as above; settings: 10 days
In short: as §2

[6] = test system: oat, wild (wild oat, Avena fatua); experiment: as above; settings: 10 days
In short: as §2

corn (Zea mays) [7] = experiment: as above; settings: 10 days
In short: as §2

soybean (Glycine max) [8] = experiment: as above; settings: 10 days
In short: as §2

[9] = test system: blackgrass (Alopecurus myosuroides); experiment: as above; settings: 10 days
In short: as §2

[10] = test system: palmer (palmer amaranth, palmer pigweed, Amaranthus palmeri); experiment: as above; settings: 10 days
In short: as §2

[11] = test system: green foxtail (Setaria viridis); experiment: as above; settings: 10 days
In short: as §2

kochia (Bassia scoparia) [12] = experiment: as above; settings: 10 days
In short: as §2

[13] = test system: wheat (Triticum aestivum); experiment: as above; settings: 10 days
In short: as §2

[14] = test system: barnyardgrass (Echinochloa crus-galli); experiment: as above; settings: 10 days
In short: as §2

[15] = test system: horseweed (Erigeron canadensis); experiment: as above; settings: 10 days
In short: as §2

[16] = test system: galium (catchweed bedstraw, Galium aparine); experiment: as above; settings: 10 days
In short: as §2

[17] = test system: ryegrass, Italian (italian ryegrass, Lolium multiflorum); experiment: Test A preemergence soil spray, visual injury rating 0-100; settings: 10 days, 0 = no effect, 100 = complete control
In short: as §2

[18] = test system: ragweed (common ragweed, Ambrosia artemisiifolia); experiment: as above; settings: 10 days, 0 = no effect, 100 = complete control
In short: as §2

[19] = test system: oat, wild (wild oat, Avena fatua); experiment: as above; settings: 10 days, 0 = no effect, 100 = complete control
In short: as §2

corn (Zea mays) [20] = experiment: as above; settings: 10 days, 0 = no effect, 100 = complete control
In short: as §2

soybean (Glycine max) [21] = experiment: as above; settings: 10 days, 0 = no effect, 100 = complete control
In short: as §2

[22] = test system: blackgrass (Alopecurus myosuroides); experiment: as above; settings: 10 days, 0 = no effect, 100 = complete control
In short: as §2

[23] = test system: palmer (palmer amaranth, palmer pigweed, Amaranthus palmeri); experiment: as above; settings: 10 days, 0 = no effect, 100 = complete control
In short: as §2

[24] = test system: green foxtail (Setaria viridis); experiment: as above; settings: 10 days, 0 = no effect, 100 = complete control
In short: as §2

kochia (Bassia scoparia) [25] = experiment: as above; settings: 10 days, 0 = no effect, 100 = complete control
In short: as §2

[26] = test system: wheat (Triticum aestivum); experiment: as above; settings: 10 days, 0 = no effect, 100 = complete control
In short: as §2

[27] = test system: barnyardgrass (Echinochloa crus-galli); experiment: as above; settings: 10 days, 0 = no effect, 100 = complete control
In short: as §2

[28] = 31 g ai/ha, postemergence, 0 = no effect, 100 = complete control
[29] = Postemergence, 125 g ai/ha, 0 is no effect, 100 is complete control

Q: With `CCOC(=O)C1CCC(NC(=O)C2(C)CN(c3cc(F)cc(Cl)c3)C(=O)O2)C1` (stereo not shown) [Compound 19] as the molecule, how does the “Plant response rating, Ducksalad (0 to 100 scale, 0 is no effect and 100 is complete control)” value [1] read?
A: 70

Q: And the “Plant response rating, Sedge, Umbrella (0 to 100 scale, 0 is no effect and 100 is complete control)” value [2]?
A: 60

Q: What about the “Plant response rating, Barnyardgrass (0 to 100 scale, 0 is no effect and 100 is complete control)” value [3] of the same molecule?
A: 65

Q: And the “Plant response rating, Rice (0 to 100 scale, 0 is no effect and 100 is complete control)” value (rice (Oryza sativa))?
A: 0

Q: What about the “Ryegrass, Italian plant response rating (0-100)” value [4, 28] of the same molecule?
A: 90

Q: And the “Ryegrass, Italian plant response rating (0 to 100 scale)” value [4, 29]?
A: 90

Q: What about the “Ragweed plant response rating (0-100)” value [5, 28] of the same molecule?
A: 0

Q: What about the “Ragweed plant response rating (0 to 100 scale)” value [5, 29] of the same molecule?
A: 40

Q: And the “Oat, Wild plant response rating (0-100)” value [6, 28]?
A: 90

Q: And the “Oat, Wild plant response rating (0 to 100 scale)” value [6, 29]?
A: 90

Q: And the “Corn plant response rating (0-100)” value (corn (Zea mays) [7]; [28])?
A: 50

Q: What about the “Corn plant response rating (0 to 100 scale)” value (corn (Zea mays) [7]; [29]) of the same molecule?
A: 100

Q: What about the “Soybean plant response rating (0-100)” value (soybean (Glycine max) [8]; [28]) of the same molecule?
A: 50

Q: What about the “Soybean plant response rating (0 to 100 scale)” value (soybean (Glycine max) [8]; [29]) of the same molecule?
A: 60

Q: And the “Blackgrass plant response rating (0-100)” value [9, 28]?
A: 70

Q: What about the “Blackgrass plant response rating (0 to 100 scale)” value [9, 29] of the same molecule?
A: 90

Q: What about the “Amaranth, Palmer plant response rating (0-100)” value [10, 28] of the same molecule?
A: 30

Q: What about the “Amaranth, Palmer / Pigweed, Palmer plant response rating (0 to 100 scale)” value [10, 29] of the same molecule?
A: 90

Q: What about the “Foxtail, Green plant response rating (0-100)” value [11, 28] of the same molecule?
A: 40

Q: What about the “Foxtail, Green plant response rating (0 to 100 scale)” value [11, 29] of the same molecule?
A: 90

Q: What about the “Kochia plant response rating (0-100)” value (kochia (Bassia scoparia) [12]; [28]) of the same molecule?
A: 10

Q: And the “Kochia plant response rating (0 to 100 scale)” value (kochia (Bassia scoparia) [12]; [29])?
A: 70

Q: And the “Wheat plant response rating (0-100)” value [13, 28]?
A: 80

Q: What about the “Wheat plant response rating (0 to 100 scale)” value [13, 29] of the same molecule?
A: 90

Q: What about the “Barnyardgrass plant response rating (0-100)” value [14, 28] of the same molecule?
A: 60

Q: And the “Barnyardgrass plant response rating (0 to 100 scale)” value [14, 29]?
A: 100

Q: And the “Horseweed plant response rating (0-100)” value [15, 28]?
A: 0

Q: And the “Horseweed plant response rating (0 to 100 scale)” value [15, 29]?
A: 0

Q: What about the “Galium plant response rating (0-100)” value [16, 28] of the same molecule?
A: 80

Q: And the “Galium plant response rating (0 to 100 scale)” value [16, 29]?
A: 80

Q: And the “Ryegrass, Italian plant response rating (0-100)” value ([17]; 31 g ai/ha)?
A: 80

Q: What about the “Ryegrass, Italian plant response rating (0 to 100 scale)” value ([17]; 125 g ai/ha) of the same molecule?
A: 80

Q: What about the “Ragweed plant response rating (0-100)” value ([18]; 31 g ai/ha) of the same molecule?
A: 0

Q: And the “Ragweed plant response rating (0 to 100 scale)” value ([18]; 125 g ai/ha)?
A: 0

Q: What about the “Oat, Wild plant response rating (0-100)” value ([19]; 31 g ai/ha) of the same molecule?
A: 0

Q: And the “Oat, Wild plant response rating (0 to 100 scale)” value ([19]; 125 g ai/ha)?
A: 60

Q: What about the “Corn plant response rating (0-100)” value (corn (Zea mays) [20]; 31 g ai/ha) of the same molecule?
A: 10

Q: What about the “Corn plant response rating (0 to 100 scale)” value (corn (Zea mays) [20]; 125 g ai/ha) of the same molecule?
A: 50

Q: And the “Soybean plant response rating (0-100)” value (soybean (Glycine max) [21]; 31 g ai/ha)?
A: 0

Q: And the “Soybean plant response rating (0 to 100 scale)” value (soybean (Glycine max) [21]; 125 g ai/ha)?
A: 20

Q: What about the “Blackgrass plant response rating (0-100)” value ([22]; 31 g ai/ha) of the same molecule?
A: 0

Q: And the “Blackgrass plant response rating (0 to 100 scale)” value ([22]; 125 g ai/ha)?
A: 50

Q: And the “Amaranth, Palmer plant response rating (0-100)” value ([23]; 31 g ai/ha)?
A: 30

Q: And the “Amaranth, Palmer plant response rating (0 to 100 scale)” value ([23]; 125 g ai/ha)?
A: 90

Q: What about the “Foxtail, Green plant response rating (0-100)” value ([24]; 31 g ai/ha) of the same molecule?
A: 50

Q: What about the “Foxtail, Green plant response rating (0 to 100 scale)” value ([24]; 125 g ai/ha) of the same molecule?
A: 90

Q: What about the “Kochia plant response rating (0-100)” value (kochia (Bassia scoparia) [25]; 31 g ai/ha) of the same molecule?
A: 0

Q: And the “Kochia plant response rating (0 to 100 scale)” value (kochia (Bassia scoparia) [25]; 125 g ai/ha)?
A: 90

Q: What about the “Wheat plant response rating (0-100)” value ([26]; 31 g ai/ha) of the same molecule?
A: 70

Q: And the “Wheat plant response rating (0 to 100 scale)” value ([26]; 125 g ai/ha)?
A: 90

Q: What about the “Barnyardgrass plant response rating (0-100)” value ([27]; 31 g ai/ha) of the same molecule?
A: 30

Q: And the “Barnyardgrass plant response rating (0 to 100 scale)” value ([27]; 125 g ai/ha)?
A: 80
